Source: patent US20240150345A1, “GCN2 MODULATING COMPOUNDS AND USES THEREOF” (HiberCell, Inc., priority 2021, published 2024)
pIC50: −log10 of the molar value.

What follows are molecules tested against T1, GCN2 (Homo sapiens, UniProt Q9P2K8) (assay: TR-FRET biochemical assay for inhibition of GCN2 activity). Conditions: 2 nM GCN2, 100 nM GFP-eIF2α, 150 μM ATP, 1.5 hours at 25° C.
T1 construct: purchased Carma Biosciences (so in the source)
Experimental: Exemplary compounds from the above Examples were tested for ability to inhibit GCN2 activity using a time resolved fluorescence energy transfer (TR-FRET) assay. Assay procedures and results are described below for Examples 12-105.
GCN2 protein was obtained from Carma Biosciences (cat #05-153). The protein was diluted in assay buffer (ThermoFisher Scientific, #PV6135), 2 mM dithiothreitol (DTT), to obtain a final concentration of 2 nM and 5 μL was plated in a 384-well white assay plate. Test compounds were serially diluted to 11 concentrations by 3-fold dilution in DMS0 and 10 nL of stock was plated into 384 well white assay plate. DMS0 was used as a vehicle control. GFP-eIF2α protein was obtained from ThermoFisher (cat #PV4809). The protein was diluted in assay buffer to a 2× concentration of 200 nM along with 300 μM ATP (final concentration of 100 nM GFP-eIF2α and 150 μM ATP) in the presence of 2 mM DTT and a […] was added to each well containing the GCN2 protein and test compound. The plate was incubated in the dark at 25° C. for 1.5 hours, shaking at 1250 rpm. Tb-anti P-eIF2α (ThermoFisher cat #PV4815) was diluted to a to a concentration of 1 nM in TR-FRET Dilution Buffer (ThermoFisher cat #PV3574). 10 μL of the Tb-anti P-eIF2a solution was added to the TR-FRET reaction. The plate was incubated in the dark for 2 h at 25° C. shaking at 600 rpm. The FRET signal from the plate was read on a Envision (PerkinElmer) plate reader: • Label 1: Excitation: 340 nm, bandwidth 30 nm; Emission: 495 nm, bandwidth 10 nm. Lag time: 100 μsec. Integration time: 400 μsec. Flashes: 30. • Label 2: Excitation: 340 nm, bandwidth 30 nm; Emission: 520 nm, bandwidth 25 nm. Lag time: 100 μsec. Integration time: 400 μsec. Flashes: 30
The data were analyzed using GraphPad Prism employing a 4-parameter sigmoidal curve fit.

T1 sequence (Q9P2K8 whole entry): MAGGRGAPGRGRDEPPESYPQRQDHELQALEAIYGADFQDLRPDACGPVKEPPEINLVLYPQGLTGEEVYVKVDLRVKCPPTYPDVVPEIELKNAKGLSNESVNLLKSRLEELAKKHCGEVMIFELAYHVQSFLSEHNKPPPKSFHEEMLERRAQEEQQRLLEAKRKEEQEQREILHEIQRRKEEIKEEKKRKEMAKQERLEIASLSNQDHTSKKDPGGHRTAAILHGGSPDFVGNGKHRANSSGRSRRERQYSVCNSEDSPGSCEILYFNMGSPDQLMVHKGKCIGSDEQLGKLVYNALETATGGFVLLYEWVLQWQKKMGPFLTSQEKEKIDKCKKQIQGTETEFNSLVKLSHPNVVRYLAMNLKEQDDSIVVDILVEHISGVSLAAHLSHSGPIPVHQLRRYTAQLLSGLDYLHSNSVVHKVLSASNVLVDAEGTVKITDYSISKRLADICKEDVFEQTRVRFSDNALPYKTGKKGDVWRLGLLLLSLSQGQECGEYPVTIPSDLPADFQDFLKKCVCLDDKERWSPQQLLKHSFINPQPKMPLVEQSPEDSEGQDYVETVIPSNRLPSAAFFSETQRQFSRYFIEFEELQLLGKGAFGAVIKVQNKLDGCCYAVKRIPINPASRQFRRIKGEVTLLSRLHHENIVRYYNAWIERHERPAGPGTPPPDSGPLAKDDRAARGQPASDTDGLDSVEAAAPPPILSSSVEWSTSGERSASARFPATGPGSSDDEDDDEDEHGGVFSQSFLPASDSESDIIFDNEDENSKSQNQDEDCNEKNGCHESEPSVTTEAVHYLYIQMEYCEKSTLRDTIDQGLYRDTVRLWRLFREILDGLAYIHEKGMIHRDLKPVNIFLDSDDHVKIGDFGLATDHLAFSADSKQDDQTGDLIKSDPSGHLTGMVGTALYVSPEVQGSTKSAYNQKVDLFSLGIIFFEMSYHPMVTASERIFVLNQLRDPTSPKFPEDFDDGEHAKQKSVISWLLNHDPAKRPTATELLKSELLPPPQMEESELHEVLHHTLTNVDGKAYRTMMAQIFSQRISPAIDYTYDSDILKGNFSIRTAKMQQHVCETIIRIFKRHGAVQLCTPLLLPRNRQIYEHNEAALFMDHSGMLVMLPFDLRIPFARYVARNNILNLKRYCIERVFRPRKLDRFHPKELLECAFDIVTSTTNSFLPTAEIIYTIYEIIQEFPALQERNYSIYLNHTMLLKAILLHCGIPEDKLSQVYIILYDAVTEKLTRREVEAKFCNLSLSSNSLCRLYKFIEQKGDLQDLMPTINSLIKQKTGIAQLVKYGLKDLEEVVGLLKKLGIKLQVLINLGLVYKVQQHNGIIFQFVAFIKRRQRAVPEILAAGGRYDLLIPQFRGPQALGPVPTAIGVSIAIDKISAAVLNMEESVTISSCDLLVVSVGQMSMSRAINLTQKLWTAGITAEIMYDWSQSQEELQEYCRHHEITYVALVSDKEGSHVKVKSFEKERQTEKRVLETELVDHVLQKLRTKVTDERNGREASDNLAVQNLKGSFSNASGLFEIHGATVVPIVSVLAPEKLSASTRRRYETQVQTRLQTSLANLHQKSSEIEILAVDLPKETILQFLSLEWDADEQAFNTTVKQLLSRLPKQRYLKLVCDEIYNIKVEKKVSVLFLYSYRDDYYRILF

Compared with `COc1ncc(Cl)cc1S(=O)(=O)Nc1ccc(F)c(COc2cnc3[nH]nc(C(C)C)c3c2)c1F` [Compound 53, 5-chloro-N-[2,4-difluoro-3-[([3-isopropyl-1H-pyrazolo[3,4-b]pyridin-5-yl]oxy)methyl]phenyl]-2-methoxypyridine-3-sulfonamide], `COc1ncc(C#N)cc1S(=O)(=O)Nc1ccc(F)c(COc2cnc3[nH]nc(C(C)C)c3c2)c1F` [Compound 55, 5-cyano-N-[2,4-difluoro-3-[([3-isopropyl-1H-pyrazolo[3,4-b]pyridin-5-yl]oxy)methyl]phenyl]-2-methoxypyridine-3-sulfonamide] is lower in pIC50: > 7.30 for the first, 6.30 to 7.30 for the second. The first is the more potent here.

`Cc1ncc(F)cc1S(=O)(=O)Nc1ccc(F)c(COc2cnc3[nH]nc(C(C)C)c3c2)c1F` [Compound 54, N-[2,4-difluoro-3-[([3-isopropyl-1H-pyrazolo[3,4-b]pyridin-5-yl]oxy)methyl]phenyl]-5-fluoro-2-methylpyridine-3-sulfonamide] and `Cc1ncc(F)cc1S(=O)(=O)Nc1ccc(F)c(COc2cnc3[nH]nc(C)c3c2)c1Cl` [Compound 74, N-[2-chloro-4-fluoro-3-[([3-methyl-1H-pyrazolo[3,4-b]pyridin-5-yl]oxy)methyl]phenyl]-5-fluoro-2-methylpyridine-3-sulfonamide] cannot be ordered by pIC50: > 7.30 for the first, > 7.30 for the second.

`COc1ncc(F)cc1S(=O)(=O)Nc1ncc(F)c(COc2cnc3[nH]nc(C)c3c2)c1F` [Compound 56, N-[3,5-difluoro-4-[([3-methyl-1H-pyrazolo[3,4-b]pyridin-5-yl]oxy)methyl]pyridin-2-yl]-5-fluoro-2-methoxypyridine-3-sulfonamide] and `COc1ncc(Cl)cc1S(=O)(=O)Nc1ncc(F)c(COc2cnc3[nH]nc(C)c3c2)c1F` [Compound 65, 5-chloro-N-[3,5-difluoro-4-[([3-methyl-1H-pyrazolo[3,4-b]pyridin-5-yl]oxy)methyl]pyridin-2-yl]-2-methoxypyridine-3-sulfonamide] cannot be ordered by pIC50: > 7.30 for the first, > 7.30 for the second.

Compared with `COc1ncc(F)cc1S(=O)(=O)Nc1ccc(F)c(NCc2cnc3[nH]nc(C)c3c2)c1F` [Compound 57, N-[2,4-difluoro-3-[([3-methyl-1H-pyrazolo[3,4-b]pyridin-5-yl]methyl)amino]phenyl]-5-fluoro-2-methoxypyridine-3-sulfonamide], `COc1ncc(Cl)cc1S(=O)(=O)Nc1ccc(F)c(NCc2cnc3[nH]nc(C)c3c2)c1F` [Compound 58, 5-chloro-N-[2,4-difluoro-3-[([3-methyl-1H-pyrazolo[3,4-b]pyridin-5-yl]methyl)amino]phenyl]-2-methoxypyridine-3-sulfonamide] is higher in pIC50: 6.30 to 7.30 for the first, > 7.30 for the second.

First: Cc1ncc(F)cc1S(=O)(=O)Nc1ccc(F)c(NCc2cnc3[nH]nc(C)c3c2)c1F [Compound 59, N-[2,4-difluoro-3-[([3-methyl-1H-pyrazolo[3,4-b]pyridin-5-yl]methyl)amino]phenyl]-5-fluoro-2-methylpyridine-3-sulfonamide]
Second: Cc1ncc(F)cc1S(=O)(=O)Nc1ccc(Cl)c(COc2cnc3[nH]nc(C)c3c2)c1F [Compound 77, N-(4-chloro-2-fluoro-3-(((3-methyl-1H-pyrazolo[3,4-b]pyridin-5-yl)oxy)methyl)phenyl)-5-fluoro-2-methylpyridine-3-sulfonamide]
The pIC50 of the first is lower: 6.30 to 7.30 for the first, > 7.30 for the second.

`COc1ncc(Cl)cc1S(=O)(=O)Nc1ccc(F)c(COc2cnn3cncc3c2)c1F` [Compound 60, 5-chloro-N-(2,4-difluoro-3-((imidazo[1,5-b]pyridazin-3-yloxy)methyl)phenyl)-2-methoxypyridine-3-sulfonamide] and `COc1ncc(F)cc1S(=O)(=O)Nc1ccc(F)c(COc2cnc3[nH]c(=O)n(C)c3c2)c1F` [Compound 71, N-[2,4-difluoro-3-[([1-methyl-2-oxo-3H-imidazo[4,5-b]pyridin-6-yl]oxy)methyl]phenyl]-5-fluoro-2-methoxypyridine-3-sulfonamide] cannot be ordered by pIC50: > 7.30 for the first, > 7.30 for the second.

`COc1ncc(F)cc1S(=O)(=O)Nc1ccc(F)c(COc2cnc3[nH]nc(C)c3c2)c1Cl` [Compound 61, N-[2-chloro-4-fluoro-3-[([3-methyl-1H-pyrazolo[3,4-b]pyridin-5-yl]oxy)methyl]phenyl]-5-fluoro-2-methoxypyridine-3-sulfonamide] and `COc1ncc(F)cc1S(=O)(=O)Nc1ccc(Cl)c(COc2cnc3[nH]nc(C)c3c2)c1F` [Compound 78, N-(4-chloro-2-fluoro-3-(((3-methyl-1H-pyrazolo[3,4-b]pyridin-5-yl)oxy)methyl)phenyl)-5-fluoro-2-methoxypyridine-3-sulfonamide] cannot be ordered by pIC50: > 7.30 for the first, > 7.30 for the second.

Compared with `COc1ncc(F)cc1S(=O)(=O)Nc1ccc(F)c(COc2cnc3[nH]nc(C)c3c2)c1C#N` [Compound 62, N-[2-cyano-4-fluoro-3-[([3-methyl-1H-pyrazolo[3,4-b]pyridin-5-yl]oxy)methyl]phenyl]-5-fluoro-2-methoxypyridine-3-sulfonamide], `COc1ncc(F)cc1S(=O)(=O)Nc1ccc(F)c(COc2cnc3[nH]nc(C#N)c3c2)c1F` [Compound 73, N-(3-(((3-cyano-1H-pyrazolo[3,4-b]pyridin-5-yl)oxy)methyl)-2,4-difluorophenyl)-5-fluoro-2-methoxypyridine-3-sulfonamide] is higher in pIC50: 6.30 to 7.30 for the first, > 7.30 for the second.

First: COc1ncc(F)cc1S(=O)(=O)Nc1ccnc(COc2cnc3[nH]nc(C)c3c2)c1F [Compound 63, 5-fluoro-N-[3-fluoro-2-[([3-methyl-1H-pyrazolo[3,4-b]pyridin-5-yl]oxy)methyl]pyridin-4-yl]-2-methoxypyridine-3-sulfonamide]
Second: COc1ncc(Cl)cc1S(=O)(=O)Nc1ccnc(COc2cnc3[nH]nc(C)c3c2)c1F [Compound 64, 5-chloro-N-[3-fluoro-2-[([3-methyl-1H-pyrazolo[3,4-b]pyridin-5-yl]oxy)methyl]pyridin-4-yl]-2-methoxypyridine-3-sulfonamide]
The pIC50 of the first is lower: 6.30 to 7.30 for the first, > 7.30 for the second.

`COc1ncc(F)cc1S(=O)(=O)Nc1ncc(F)c(COc2cnc3[nH]nc(C)c3c2)c1Cl` [Compound 66, N-[3-chloro-5-fluoro-4-[([3-methyl-1H-pyrazolo[3,4-b]pyridin-5-yl]oxy)methyl]pyridin-2-yl]-5-fluoro-2-methoxypyridine-3-sulfonamide] and `COc1ncc(Cl)cc1S(=O)(=O)Nc1ncc(F)c(COc2cnc3[nH]nc(C)c3c2)c1Cl` [Compound 79, 5-chloro-N-[3-chloro-5-fluoro-4-[([3-methyl-1H-pyrazolo[3,4-b]pyridin-5-yl]oxy)methyl]pyridin-2-yl]-2-methoxypyridine-3-sulfonamide] cannot be ordered by pIC50: > 7.30 for the first, > 7.30 for the second.

Compared with `COc1ncc(F)cc1S(=O)(=O)Nc1ccc(F)c(COc2cnc3[nH]nc(C)c3c2)n1` [Compound 67, 5-fluoro-N-[5-fluoro-6-[([3-methyl-1H-pyrazolo[3,4-b]pyridin-5-yl]oxy)methyl]pyridine-2-yl]-2-methoxypyridine-3-sulfonamide], `COc1ncc(Cl)cc1S(=O)(=O)Nc1ccc(F)c(COc2cnc3[nH]nc(C)c3c2)n1` [Compound 68, 5-chloro-N-[5-fluoro-6-[([3-methyl-1H-pyrazolo[3,4-b]pyridin-5-yl]oxy)methyl]pyridin-2-yl]-2-methoxypyridine-3-sulfonamide] is higher in pIC50: < 6.00 for the first, 6.30 to 7.30 for the second. The second is the more potent here.

`C#Cc1n[nH]c2ncc(OCc3c(F)ccc(NS(=O)(=O)c4cc(F)cnc4OC)c3F)cc12` [Compound 69, N-[3-[([3-ethynyl-1H-pyrazolo[3,4-b]pyridin-5-yl]oxy)methyl]-2,4-difluorophenyl]-5-fluoro-2-methoxypyridine-3-sulfonamide] and `COc1ncc(F)cc1S(=O)(=O)Nc1ccc(F)c(COc2cnc3[nH]nc(C4CC4)c3c2)c1F` [Compound 70, N-(3-(((3-cyclopropyl-1H-pyrazolo[3,4-b]pyridin-5-yl)oxy)methyl)-2,4-difluorophenyl)-5-fluoro-2-methoxypyridine-3-sulfonamide] cannot be ordered by pIC50: > 7.30 for the first, > 7.30 for the second.

`COc1ncc(F)cc1S(=O)(=O)Nc1ccc(F)c(COc2cnc3c(c2)C2(CC2)C(=O)N3)c1F` [Compound 72, N-[2,4-difluoro-3-([2-oxo-1H-spiro[cyclopropane-1,3-pyrrolo[2,3-b]pyridin]-5-yloxy]methyl)phenyl]-5-fluoro-2-methoxypyridine-3-sulfonamide] and `COc1ncc(F)cc1S(=O)(=O)Nc1ccc(F)c(COc2cnc3[nH]nc(CCF)c3c2)c1F` [Compound 76, N-[2,4-difluoro-3-([[3-(2-fluoroethyl)-1H-pyrazolo[3,4-b]pyridin-5-yl]oxy]methyl)phenyl]-5-fluoro-2-methoxypyridine-3-sulfonamide] cannot be ordered by pIC50: > 7.30 for the first, > 7.30 for the second.

In the case of `COc1ncc(F)cc1S(=O)(=O)Nc1ccc(F)c(COc2cnc3[nH]nc(CC(F)F)c3c2)c1F` [Compound 75, N-[3-([[3-(2,2-difluoroethyl)-1H-pyrazolo[3,4-b]pyridin-5-yl]oxy]methyl)-2,4-difluorophenyl]-5-fluoro-2-methoxypyridine-3-sulfonamide], the pIC50 was > 7.30.
